Reference: ChEMBL document CHEMBL1697723, “A predictive ligand-based Bayesian model for human drug-induced liver injury” (Drug Metab Dispos, 2010)
Counter-ions that a name gives are not always drawn.

system: Hepatotoxicity; assay: Human drug-induced liver injury (DILI) modelling dataset from Ekins et al; conditions: not given

| Structure (SMILES) | Hepatotoxicity |
| --- | --- |
| CCOc1nc2cccc(C(=O)O)c2n1Cc1ccc(-c2ccccc2-c2nnn[nH]2)cc1 | DILI negative (test set) |
| CCCc1nc2c(C)cc(-c3nc4ccccc4n3C)cc2n1Cc1ccc(-c2ccccc2C(=O)O)cc1 | DILI negative (training set) |
| CCCCC(=O)N(Cc1ccc(-c2ccccc2-c2nnn[nH]2)cc1)[C@H](C(=O)O)C(C)C | DILI negative (test set) |
| CC(C)(C)NCC(O)c1cc(O)cc(O)c1.O=S(=O)(O)O (stereo unspecified) | DILI positive (test set) |
| COc1cccc(OC)c1C(=O)N[C@@H]1C(=O)N2[C@@H]1SC(C)(C)[C@@H]2C(=O)[O-].[Na+] | DILI positive (training set) |
| CN[C@@H]1[C@H](O)[C@H](NC)[C@H]2O[C@@]3(O)C(=O)C[C@@H](C)O[C@H]3O[C@@H]2[C@H]1O.Cl | DILI positive (test set) |
| CCO.C[C@H]1c2cccc(O)c2C(=O)C2=C(O)[C@]3(O)C(=O)C(C(N)=O)=C(O)[C@@H](N(C)C)[C@@H]3[C@@H](O)[C@@H]21.Cl.O | DILI positive (training set) |
| CCN(CC)CCNC(=O)c1cc(Cl)c(N)cc1OC.Cl | DILI positive (training set) |
| CNS(=O)(=O)Cc1ccc2[nH]cc(CCN(C)C)c2c1 | DILI negative (training set) |
| CN(C)CCN(Cc1cccs1)c1ccccn1 | DILI positive (test set) |
| CCCCCOC(=O)c1ccccc1C(=O)OCCCCC | DILI positive (test set) |
| CC1=C(CC(=O)O)c2cc(F)ccc2/C1=C\c1ccc([S+](C)[O-])cc1 (stereo unspecified) | DILI positive (training set) |
| CCOC(=O)[C@H](CCc1ccccc1)N[C@@H](C)C(=O)N1Cc2ccccc2C[C@H]1C(=O)O | DILI positive (training set) |
| S=C=Nc1ccc2ccccc2c1 | DILI negative (test set) |
| CO/N=C(/C(=O)N[C@@H]1C(=O)N2C(C(=O)[O-])=C(CSc3nc(=O)c(O)nn3C)CS[C@H]12)c1csc(N)n1.[Na+] | DILI positive (test set) |
| O=C1NC(=O)C(O)(O)C(=O)N1 | DILI negative (training set) |
| Oc1ccccc1Br | DILI positive (test set) |
| O=C(O)COc1ccc(C(=O)c2cccs2)c(Cl)c1Cl | DILI positive (test set) |
| O=C1NCN(c2ccccc2)C12CCN(CCCC(c1ccc(F)cc1)c1ccc(F)cc1)CC2 | DILI positive (test set) |
| C[n+]1ccc(-c2cc[n+](C)cc2)cc1 | DILI positive (test set) |
| Nc1ccc(Cc2ccc(N)cc2)cc1 | DILI positive (test set) |
| C=C1CC[C@@]2(O)[C@H]3Cc4ccc(O)c5c4[C@@]2(CCN3CC2CC2)[C@H]1O5 | DILI negative (training set) |
| ClCCCl [1,2-DICHLOROETHANE] | DILI positive (test set) |

| Structure (SMILES) | Hepatotoxicity |
| --- | --- |
| Clc1ccc(Cl)cc1 [1,4-DICHLOROBENZENE] | DILI positive (test set) |
| FCCCCCF [1,5-DIFLUOROPENTANE] | DILI positive (test set) |
| S=C=Nc1cccc2ccccc12 [1-NAPHTHYLISOTHIOCYANATE] | DILI positive (test set) |
| O=[N+]([O-])c1ccc(O)c([N+](=O)[O-])c1 [2,4-DINITROPHENOL] | DILI positive (test set) |
| Nc1ccc(O)cc1 [4-AMINOPHENOL] | DILI negative (test set) |
| Nc1nc(NC2CC2)c2ncn([C@H]3C=C[C@@H](CO)C3)c2n1 [ABACAVIR] | DILI positive (test set) |
| CC(=O)CC(c1ccc([N+](=O)[O-])cc1)c1c(O)c2ccccc2oc1=O (stereo unspecified) [ACENOCOUMAROL] | DILI positive (test set) |
| CC(=O)Nc1ccc(O)cc1 [ACETAMINOPHEN] | DILI positive (training set) |
| CC(=O)Nc1nnc(S(N)(=O)=O)s1 [ACETAZOLAMIDE] | DILI positive (training set) |
| CC(=O)c1ccc(S(=O)(=O)NC(=O)NC2CCCCC2)cc1 [ACETOHEXAMIDE] | DILI positive (training set) |
| CC(=O)N[C@@H](CS)C(=O)O [ACETYLCYSTEINE] | DILI negative (test set) |
| COc1cc(C)c(/C=C/C(C)=C/C=C/C(C)=C/C(=O)O)c(C)c1C [ACITRETIN] | DILI positive (training set) |
| N[C@H](C(=O)O)[C@@H]1CC(Cl)=NO1 [ACIVICIN] | DILI negative (training set) |
| CC[C@@]1(O)C[C@H](O[C@H]2C[C@H](N(C)C)[C@H](O[C@H]3C[C@H](O)[C@H](O[C@H]4CCC(=O)[C@H](C)O4)[C@H](C)O3)[C@H](C)O2)c2c(cc3c(c2O)C(=O)c2c(O)cccc2C3=O)[C@H]1C(=O)OC.Cl [ACLARUBICIN HYDROCHLORIDE] | DILI negative (test set) |
| Nc1ncnc2c1ncn2[C@@H]1O[C@H](CO)[C@@H](O)[C@H]1O [ADENOSINE] | DILI negative (training set) |
| COc1cc2c(c3oc(=O)c4c(c13)CCC4=O)[C@@H]1C=CO[C@@H]1O2 [AFLATOXIN] | DILI positive (test set) |
| CCCSc1ccc2nc(NC(=O)OC)[nH]c2c1 [ALBENDAZOLE] | DILI positive (training set) |
| Oc1ncnc2[nH]ncc12 [ALLOPURINOL] | DILI positive (training set) |
| C=CCO [ALLYL ALCOHOL] | DILI positive (test set) |
| C=CCOC=O [ALLYL FORMATE] | DILI positive (test set) |
| CCCN(CCC)C(=O)Cc1c(-c2ccc(Cl)cc2)nc2ccc(Cl)cn12 [ALPIDEM] | DILI positive (test set) |
| Cl.NC12CC3CC(CC(C3)C1)C2 [AMANTADINE HYDROCHLORIDE] | DILI negative (training set) |
| Cl.N=C(N)NC(=O)c1nc(Cl)c(N)nc1N.O.O [AMILORIDE HYDROCHLORIDE] | DILI negative (training set) |

| Structure (SMILES) | Hepatotoxicity |
| --- | --- |
| Cl.O=C(O)CCCCCCNC1c2ccccc2CCc2ccccc21 [AMINEPTINE HYDROCHLORIDE] | DILI positive (test set) |
| Nc1ccc(C(=O)[O-])cc1.[K+] [AMINOBENZOATE POTASSIUM] | DILI negative (training set) |
| NCCCCCC(=O)O [AMINOCAPROIC ACID] | DILI negative (test set) |
| CCC1(c2ccc(N)cc2)CCC(=O)NC1=O (stereo unspecified) [AMINOGLUTETHIMIDE] | DILI negative (training set) |
| Nc1ccc(C(=O)O)c(O)c1 [AMINOSALICYLIC ACID] | DILI positive (training set) |
| CN(C)CCC=C1c2ccccc2CCc2ccccc21.Cl [AMITRIPTYLINE HYDROCHLORIDE] | DILI negative (training set) |
| Cl.N [AMMONIUM CHLORIDE] | DILI negative (training set) |
| Clc1ccc2c(c1)C(N1CCNCC1)=Nc1ccccc1O2 [AMOXAPINE] | DILI negative (training set) |
| CC1(C)S[C@@H]2[C@H](NC(=O)[C@H](N)c3ccc(O)cc3)C(=O)N2[C@H]1C(=O)O [AMOXICILLIN] | DILI negative (test set) |
| C[C@@H]1[C@H](O)[C@@H](C)/C=C/C=C/C=C/C=C/C=C/C=C/C=C/[C@H](O[C@@H]2O[C@H](C)[C@@H](O)[C@H](N)[C@@H]2O)C[C@@H]2O[C@](O)(C[C@@H](O)C[C@@H](O)[C@H](O)CC[C@@H](O)C[C@@H](O)CC(=O)O[C@H]1C)C[C@H](O)[C@H]2C(=O)O [AMPHOTERICIN B] | DILI negative (test set) |
| CC1(C)S[C@@H]2[C@H](NC(=O)[C@H](N)c3ccccc3)C(=O)N2[C@H]1C(=O)[O-].[Na+] [AMPICILLIN SODIUM] | DILI negative (test set) |
| COc1cc(NS(C)(=O)=O)ccc1Nc1c2ccccc2nc2ccccc12.Cl [AMSACRINE HYDROCHLORIDE] | DILI positive (training set) |
| CCOC(=O)C1(c2ccccc2)CCN(CCc2ccc(N)cc2)CC1.Cl [ANILERIDINE HYDROCHLORIDE] | DILI negative (test set) |
| N=C(N)NCCC[C@H](N)C(=O)O [ARGININE] | DILI negative (training set) |
| O=[As][As+](=O)[O-] (stereo unspecified) [ARSENIC TRIOXIDE] | DILI positive (test set) |
| O=C1O[C@H]([C@@H](O)CO)C(O)=C1O [ASCORBIC ACID] | DILI negative (training set) |
| CC(=O)Oc1ccccc1C(=O)O [ASPIRIN] | DILI negative (training set) |
| COc1ccc(CCN2CCC(Nc3nc4ccccc4n3Cc3ccc(F)cc3)CC2)cc1 [ASTEMIZOLE] | DILI negative (training set) |
| CNCC[C@@H](Oc1ccccc1C)c1ccccc1 [ATOMOXETINE] | DILI positive (test set) |
| C=C1[C@@H]2CCC3[C@@](CC[C@@H]4[C@H](C(=O)O)C[C@@H](O[C@@H]5O[C@H](CO)[C@@H](OS(=O)(=O)[O-])[C@H](OS(=O)(=O)[O-])[C@H]5OC(=O)CC(C)C)C[C@@]34C)(C2)[C@@H]1O.[K+].[K+] (stereo partly specified) [ATRACTYLOSIDE] | DILI positive (training set) |
| [N-]=[N+]=CC(=O)OC[C@H](N)C(=O)O [AZASERINE] | DILI positive (training set) |
| CN1CCC(=C2c3ccccc3CCc3cccnc32)CC1.O=C(O)/C=C\C(=O)O.O=C(O)/C=C\C(=O)O [AZATADINE MALEATE] | DILI positive (test set) |

same assay, conditions: Liver

| Structure (SMILES) | Hepatotoxicity |
| --- | --- |
| Cl.NCCNCCNCCN | DILI positive (test set) |
| CCN(CC)Cc1cc(Nc2ccnc3cc(Cl)ccc23)ccc1O.Cl.Cl.Cl | DILI positive (test set) |
| N#CC(C#N)=NNc1ccc(OC(F)(F)F)cc1 | DILI positive (training set) |
| CC(=O)OCC[N+](C)(C)C.[Cl-] [ACETYLCHOLINE CHLORIDE] | DILI negative (training set) |
| CCCCc1oc2ccccc2c1C(=O)c1cc(I)c(OCCN(CC)CC)c(I)c1 [AMIODARONE] | DILI positive (training set) |
| CC(C)NCC(O)COc1ccc(CC(N)=O)cc1 (stereo unspecified) [ATENOLOL] | DILI negative (training set) |
| Nc1ncn([C@@H]2O[C@H](CO)[C@@H](O)[C@H]2O)c(=O)n1 [AZACITIDINE] | DILI positive (test set) |
| Cn1cnc([N+](=O)[O-])c1Sc1ncnc2nc[nH]c12 [AZATHIOPRINE] | DILI positive (training set) |
